Series [1] deals with Salmonella typhimurium TA100. Briefly: Reverse mutation assay (Ames test), TA100. (In general: The Ames test detects mutagens through reverse mutation in bacteria.)
Series [2] concerns human liver microsomes (HLM). Briefly: Human liver microsomal incubation, metabolite formation quantified by UPLC. The following applies: HLM, substrate Phenanthrene. On the technique in general: Liver microsomes are a subcellular fraction often used to study metabolism.
Assay in series [3]: as above
To be noted: human, microsomes, pH 7.4.

The next series deals with S. typhimurium TA98. To be noted: ref Bucker et al. [1979], Wood et al. [1979]; cited from earlier work.
In series [4] the test system is Chinese hamster bone marrow cells. The arrangement: method as in Bayer [1978]. The following applies: in vivo exposure; ref Bayer [1978]; cited from earlier work.
The next series concerns S. typhimurium TA100. The following applies: ref Bucker et al. [1979], Wood et al. [1979]; cited from earlier work.
The next series relates to mouse skin. More on the design: method as in Buening et al. [1979]; LaVoie et al. [1981]. To be noted: mouse skin painting; ref Buening et al. [1979]; LaVoie et al. [1981]; cited from earlier work.
Series [5] can be described thus: Rat liver microsomal incubation, metabolite formation quantified by UPLC. To be noted: Sprague-Dawley, rat, microsomes, pH 7.4.
Series [6] has as its system rat liver microsomes (RLM). The series is described as above. To be noted: RLM, substrate Phenanthrene.
Series [7] deals with Salmonella typhimurium TA98. Briefly: Reverse mutation assay (Ames test), TA98.

Take `c1ccc2c(c1)ccc1ccccc12` [Phenanthrene]: the “Increase in the number of revertants compared to the concurrent solvent control” value in series [1] (TA100, presence of 5% S9-mix, 10–100 µg) is recorded as “No increases in the number of revertants were observed”. The “Mutagenicity (conclusion)” value in series [1] (TA100, positive if more than twofold over control) is “tested negative for mutagenicity”. In [2], the “Vmax, formation of 1,2-Dihydro-phenanthrene-diol RT = 3.57 min” value is 152.5 ± 14.4 pmol/min/mg microsomal protein; the “Vmax, formation of 1-Phenanthrol RT = 6.31 min” value was 125.2 ± 5.4 pmol/min/mg microsomal protein; the “Vmax, formation of 3,4-Dihydro-phenanthrene-diol RT = 2.13 min” value is recorded as 61.5 ± 6.3 pmol/min/mg microsomal protein; the “Vmax, formation of 3,4-Dihydro-phenanthrene-diol RT = 2.24 min” value is on record as 6.0 ± 0.3 pmol/min/mg microsomal protein. Further, in series [2], the “Vmax, formation of 4-Phenanthrol RT = 6.55 min” value is given as 18.0 ± 3.9 pmol/min/mg microsomal protein and the “Vmax, formation of 9,10-Dihydro-phenanthene-diol RT = 3.38 min” value was 287.8 ± 17.1 pmol/min/mg microsomal protein. In [3], the microsomal CLint worked out at 24.2 µL/min/mg. Moreover, the Mutagenicity result in the series with S. typhimurium TA98 was “Neither phenanthrene nor its dihydrodiol metabolites were found to be mutagenic”. The DNA adducts result in series [4] is “no phenanthrene DNA adducts could be detected”. In addition, in the series on S. typhimurium TA100, the Mutagenicity entry was “Neither phenanthrene nor its dihydrodiol metabolites were found to be mutagenic”. Further, in the series on mouse skin, the Tumor-initiating activity result is listed as “neither phenanthrene nor its monomethylated analogs”. Besides, the microsomal CLint in series [5] worked out at 7.3 µL/min/mg. For the same compound, in [6], the “Vmax, formation of 1,2-Dihydro-phenanthrene-diol RT = 3.57 min” value is given as 79.3 ± 6.5 pmol/min/mg microsomal protein; the “Vmax, formation of 1-Phenanthrol RT = 6.31 min” value is reported as 123.9 ± 19.2 pmol/min/mg microsomal protein; the “Vmax, formation of 3,4-Dihydro-phenanthrene-diol RT = 2.13 min” value is reported as 10.3 ± 1.8 pmol/min/mg microsomal protein; the “Vmax, formation of 3-Phenanthrol RT = 6.02 min” value is reported as 21.3 ± 2.0 pmol/min/mg microsomal protein. Moreover, in series [6], the “Vmax, formation of 4-Phenanthrol RT = 6.55 min” value is on record as 24.5 ± 5.5 pmol/min/mg microsomal protein; the “Vmax, formation of 9,10-Dihydro-phenanthene-diol RT = 3.28 min” value was 9.8 ± 0.6 pmol/min/mg microsomal protein; the “Vmax, formation of 9,10-Dihydro-phenanthene-diol RT = 3.38 min” value is on record as 529.2 ± 43.2 pmol/min/mg microsomal protein. In addition, the “Increase in the number of revertants compared to the concurrent solvent control” value in series [7] (TA98, presence of 5% S9-mix, 10–100 µg) is given as “No increases in the number of revertants were observed”. The “Mutagenicity (conclusion)” value in [7] (TA98, positive if more than threefold over control) is recorded as “tested negative for mutagenicity”.
